Source: ChEMBL document CHEMBL3885861, “Open TG-GATES”
Structures can show the parent of a compound that is named as a salt.

Species: Rattus norvegicus
Assay: Open TG-GATES - Regimen: Single
Assay type: toxicity, organism-based, Sprague-Dawley
Set-up: regimen Single, gender Male, age 6 weeks
Settings: in vivo, ip, 0 mg/kg, route intraperitoneal injection, dose level Control; for APTT / Bas / Eos / Fbg / Hb / Ht / Lym / MCH / MCHC / MCV / Mono / Neu / PT / Plat / RBC / Ret / WBC: tissue Blood; for KIDNEY_L / KIDNEY_R / KIDNEY_TOTAL: tissue Kidney; for LIVER: tissue Liver; for A/G / ALP / ALT / AST / BUN / CRE / Ca / Cl / DBIL / GLC / IP / K / LDH / Na / PL / RALB / TBIL / TC / TG / TP / gamma-GTP: tissue Plasma

## CCOC(=O)/C=C\C(=O)OCC [DIETHYL MALEATE]
3 h
  TERMINAL_BW: 198.9 g
  APTT: 16.4 s
  Bas: 0%
  Eos: 0.6%
  Fbg: 209.8 mg/dL
  Hb: 13 g/dL
  Ht: 39.1%
  Lym: 69.8%
  MCH: 21.2 pg
  MCHC: 33.4%
  MCV: 63.6 fL
  Mono: 7%
  Neu: 22.8%
  PT: 12.3 s
  Plat: 114.7 x10_4/uL
  RBC: 615.6 x10_4/ul
  Ret: 10.1%
  WBC: 113.4 x10_2/uL
  KIDNEY_L: 0.9 g
  KIDNEY_R: 0.9 g
  KIDNEY_TOTAL: 1.8 g
  LIVER: 9.2 g
  A/G: 2
  ALP: 732.6 IU/L
  ALT: 39.8 IU/L
  AST: 78.2 IU/L
  BUN: 14.6 mg/dL
  CRE: 0.5 mg/dL
  Ca: 11.2 mg/dL
  Cl: 106 meq/L
  DBIL: 0.028 mg/dL
  GLC: 187 mg/dL
  IP: 10.1 mg/dL
  K: 5.2 meq/L
  LDH: 80.6 IU/L
  Na: 140.4 meq/L
  PL: 137.4 mg/dL
  RALB: 3.6 g/dL
  TBIL: 0.3 mg/dL
  TC: 79.6 mg/dL
  TG: 38 mg/dL
  TP: 5.4 g/dL
  gamma-GTP: 1 IU/L
6 h
  TERMINAL_BW: 197.4 g
  APTT: 16.4 s
  Bas: 0%
  Eos: 1%
  Fbg: 219.8 mg/dL
  Hb: 13.4 g/dL
  Ht: 40.3%
  Lym: 67%
  MCH: 21.6 pg
  MCHC: 33.3%
  MCV: 64.8 fL
  Mono: 7.4%
  Neu: 24.6%
  PT: 12 s
  Plat: 118.6 x10_4/uL
  RBC: 621.6 x10_4/ul
  Ret: 8.9%
  WBC: 102 x10_2/uL
  KIDNEY_L: 0.8 g
  KIDNEY_R: 0.9 g
  KIDNEY_TOTAL: 1.7 g
  LIVER: 8.3 g
  A/G: 1.8
  ALP: 838.6 IU/L
  ALT: 35.2 IU/L
  AST: 67 IU/L
  BUN: 14 mg/dL
  CRE: 0.4 mg/dL
  Ca: 10.6 mg/dL
  Cl: 106.6 meq/L
  DBIL: 0.018 mg/dL
  GLC: 191 mg/dL
  IP: 10.4 mg/dL
  K: 5.2 meq/L
  LDH: 70.4 IU/L
  Na: 139.8 meq/L
  PL: 142.6 mg/dL
  RALB: 3.4 g/dL
  TBIL: 0.4 mg/dL
  TC: 84.2 mg/dL
  TG: 51.2 mg/dL
  TP: 5.3 g/dL
  gamma-GTP: 1.6 IU/L
9 h
  TERMINAL_BW: 194.7 g
  APTT: 16.6 s
  Bas: 0%
  Eos: 0.6%
  Fbg: 228.4 mg/dL
  Hb: 12.7 g/dL
  Ht: 38%
  Lym: 73.8%
  MCH: 21.7 pg
  MCHC: 33.3%
  MCV: 65 fL
  Mono: 3%
  Neu: 22.6%
  PT: 11.9 s
  Plat: 117 x10_4/uL
  RBC: 585.2 x10_4/ul
  Ret: 9.9%
  WBC: 101.3 x10_2/uL
  KIDNEY_L: 0.9 g
  KIDNEY_R: 0.9 g
  KIDNEY_TOTAL: 1.8 g
  LIVER: 7.9 g
  A/G: 2.2
  ALP: 605 IU/L
  ALT: 29.6 IU/L
  AST: 66.4 IU/L
  BUN: 11.8 mg/dL
  CRE: 0.5 mg/dL
  Ca: 10.6 mg/dL
  Cl: 106.8 meq/L
  DBIL: 0.036 mg/dL
  GLC: 191.8 mg/dL
  IP: 10.3 mg/dL
  K: 5 meq/L
  LDH: 59 IU/L
  Na: 138 meq/L
  PL: 133.2 mg/dL
  RALB: 3.6 g/dL
  TBIL: 0.4 mg/dL
  TC: 76.8 mg/dL
  TG: 40.4 mg/dL
  TP: 5.3 g/dL
  gamma-GTP: 2.4 IU/L
24 h
  TERMINAL_BW: 212.9 g
  APTT: 16 s
  Bas: 0%
  Eos: 0.4%
  Fbg: 226.8 mg/dL
  Hb: 12.9 g/dL
  Ht: 38.4%
  Lym: 79.8%
  MCH: 21.8 pg
  MCHC: 33.7%
  MCV: 65 fL
  Mono: 4.6%
  Neu: 15%
  PT: 11.7 s
  Plat: 121.2 x10_4/uL
  RBC: 590.8 x10_4/ul
  Ret: 9.5%
  WBC: 106.7 x10_2/uL
  KIDNEY_L: 0.9 g
  KIDNEY_R: 0.9 g
  KIDNEY_TOTAL: 1.8 g
  LIVER: 10.1 g
  A/G: 2.2
  ALP: 864.6 IU/L
  ALT: 34.8 IU/L
  AST: 66.8 IU/L
  BUN: 20.4 mg/dL
  CRE: 0.5 mg/dL
  Ca: 10.8 mg/dL
  Cl: 106 meq/L
  DBIL: 0.018 mg/dL
  GLC: 202.2 mg/dL
  IP: 8.6 mg/dL
  K: 4.9 meq/L
  LDH: 93.4 IU/L
  Na: 140 meq/L
  PL: 143.2 mg/dL
  RALB: 3.8 g/dL
  TBIL: 0.3 mg/dL
  TC: 77.2 mg/dL
  TG: 93.6 mg/dL
  TP: 5.5 g/dL
  gamma-GTP: 2.2 IU/L
